Among the data in patent publication US12448410B2, “Derivative of sarsasapogenin, pharmaceutical composition and use thereof” (Phytovent Biopharma, priority 2018, dated 2025) are inhibition and IC50 values, retold here.

Structures are written as SMILES.

Holding throughout (type): cell-based
One test concerns A549 lung cancer cells. Description: CTG cell proliferation, in vitro growth inhibition of A549 lung cancer cells. Conditions: Homo sapiens, 72 hours, CellTiter-Glo. The protocol:
(§1) Study of CTG Cell Proliferation—Inhibition of In-Vitro Growth of Various Tumor Cells by Sarsasapogenin Derivative
(§2) Tumor cells included: human A549 cells (lung cancer cells) (ATCC, Catalog No. CCL-185), HeLa cells (cervical cancer cells) (ATCC, Catalog No. CCL-2), HepG2 cells (liver cancer cells) (ATCC, Catalog No. HB-8065), A375 cells (melanoma cells) (ATCC, Catalog No. CRL-1619), MCF-7 (breast cancer cell) (ATCC, Catalog No. HTB-22), U87MG (brain glioma cell) (ATCC, Catalog No. HTB-14), LN229 (ATCC, Catalog No. CRL-2611), A172 (ATCC, Catalog No. CRL-1620), KNS-42 (JCRB, Catalog No. IF050356), BE(2)-C (ATCC, Catalog No. CRL-2268), U118MG (ATCC, Catalog No. HTB-15), SW-1088 (ATCC, Catalog No. HTB-12), and SH-SY5Y (CLS, Catalog No. 300154).
(§3) The aforementioned tumor cells were inoculated into clear-bottom white 96-well culture plates (Corning, Catalog No. CLS3903) containing specific medium at 1.8 to 15×10^3 cells per well, and were incubated in an incubator (37° C., 5% CO2) for 24 hours.
(§4) A 10 mM stock solution was prepared by using DMSO (Sigma, Catalog No. D2650) for each compound, diluted with medium to required concentrations (final concentration of DMSO: 0.2%) and added into each well with 2 replicate wells/concentration. The cells were incubated in the incubator at 37° C. and 5% CO2 for 72 hours. Then, 100 μL of CellTiter-Glo® cell activity assay reagent (Promega, Catalog No. G7573) was added into each well and well mixed using a shaker for 10 minutes to induce cytolysis. The 96-well plates were let stand at room temperature for 10 minutes to stabilize the luminous signals. With white bottom membranes attached to the bottoms of the culture plates, the plates were read using EnSpire system. Data were processed by XLfit software to give IC50 values.

For test [1], the system named is U87MG (brain glioma cell). Description: CTG cell proliferation, brain tumor cells U87MG. Particulars: Homo sapiens, U-87 MG, 72 hours, CellTiter-Glo, read-out: Inhibition of in vitro growth of brain tumor cells (IC50). The method, then:
as §1, §2, §3, §4

Another test concerns LN229. Description: CTG cell proliferation, brain tumor cells LN229. Particulars: Homo sapiens, LN-229; LN229, 72 hours, CellTiter-Glo; read-out: Inhibition of in vitro growth of brain tumor cells (IC50). The protocol: as §1, §2, §3, §4
The subject of another test is A172. Description: CTG cell proliferation, brain tumor cells A172. Conditions: Homo sapiens, A 172; A172, 72 hours, CellTiter-Glo; read-out: Inhibition of in vitro growth of brain tumor cells (IC50). The protocol: as §1, §2, §3, §4
The test system of a further test is KNS-42. The test is described as follows: CTG cell proliferation, brain tumor cells KNS-42. Conditions: Homo sapiens; KNS-42, 72 hours, CellTiter-Glo; read-out: Inhibition of in vitro growth of brain tumor cells (IC50). The method, then: as §1, §2, §3, §4
The test system of the next test is BE(2)-C. The test is described as follows: CTG cell proliferation, brain tumor cells BE(2)-C. Particulars: Homo sapiens, 72 hours, CellTiter-Glo, read-out: Inhibition of in vitro growth of brain tumor cells (IC50). The protocol: as §1, §2, §3, §4
A further test has as its system U118MG. Description: CTG cell proliferation, brain tumor cells U118MG. Conditions: Homo sapiens, U-118-MG, 72 hours, CellTiter-Glo, read-out: Inhibition of in vitro growth of brain tumor cells (IC50). The method, then: as §1, §2, §3, §4
In another test the test system is SW-1088. Description: CTG cell proliferation, brain tumor cells SW-1088. Conditions: Homo sapiens, SW1088; SW-1088, 72 hours, CellTiter-Glo; read-out: Inhibition of in vitro growth of brain tumor cells (IC50). The method, then: as §1, §2, §3, §4
A further test relates to SH-SY5Y. The test is described as follows: CTG cell proliferation, brain tumor cells SH-SY5Y. Conditions: Homo sapiens, 72 hours, CellTiter-Glo, read-out: Inhibition of in vitro growth of brain tumor cells (IC50). The protocol: as §1, §2, §3, §4

In the case of `C[C@H]1CC[C@@]2(OC1)O[C@H]1C[C@H]3[C@@H]4CC[C@@H]5CC(NC(=O)C6CCN(C)CC6)CC[C@]5(C)[C@H]4CC[C@]3(C)[C@H]1[C@@H]2C` (stereo partly drawn) [Example 1], in the test with A549 lung cancer cells, the inhibition at 1 µM was -5.25%, the inhibition at 5 µM was found to be 31.1% and the inhibition at 10 µM was 87.6%.
Regarding `C[C@H]1CC[C@@]2(OC1)O[C@H]1C[C@H]3[C@@H]4CC[C@@H]5C[C@@H](NC(=O)CCN6CCN(C)CC6)CC[C@]5(C)[C@H]4CC[C@]3(C)[C@H]1[C@@H]2C` [Example 2A], the IC50 in [1] came to 1560 nM; with LN229, 1620 nM; in the test with A172 it was 1660 nM; in the test on KNS-42, 1770 nM; in the test with BE(2)-C, 2850 nM; in the test with U118MG it was 1070 nM. The values for the IC50 in the test with SW-1088 and in the test with SH-SY5Y were 660 nM and 2780 nM, respectively.
With `C[C@H]1CC[C@@]2(OC1)O[C@H]1C[C@H]3[C@@H]4CC[C@@H]5C[C@H](NC(=O)CCN6CCN(C)CC6)CC[C@]5(C)[C@H]4CC[C@]3(C)[C@H]1[C@@H]2C` [Example 2B], the IC50 in [1] was found to be 4660 nM; in the test with LN229, 5520 nM; with A172, 3840 nM; with KNS-42, 4780 nM; in the test on BE(2)-C, 7900 nM; in the test with U118MG it was 5170 nM. Besides, the 50% inhibitory concentration (IC50) in the test with SW-1088 was 2750 nM; in the test on SH-SY5Y, over 10000 nM.
With `C[C@H]1CC[C@@]2(OC1)O[C@H]1C[C@H]3[C@@H]4CC[C@@H]5CC(NC(=O)CCN6CCN(C)CC6)CC[C@]5(C)[C@H]4CC[C@]3(C)[C@H]1[C@@H]2C` (stereo partly drawn) [Example 2], in the test with A549 lung cancer cells, the inhibition at 1 µM amounted to 95.3%, the inhibition at 5 µM is 98.1% and the inhibition at 10 µM was determined as 100%.
Turning to `C[C@H]1CC[C@@]2(OC1)O[C@H]1C[C@H]3[C@@H]4CC[C@@H]5CC(NC(=O)CN(C)C)CC[C@]5(C)[C@H]4CC[C@]3(C)[C@H]1[C@@H]2C` (stereo partly drawn) [Example 3], in the test with A549 lung cancer cells, the inhibition at 1 µM was determined as 1%, the inhibition at 5 µM is 86.2% and the inhibition at 10 µM worked out at 99%.
As to `C[C@H]1CC[C@@]2(OC1)O[C@H]1C[C@H]3[C@@H]4CC[C@@H]5CC(NC(=O)CCN(C)C)CC[C@]5(C)[C@H]4CC[C@]3(C)[C@H]1[C@@H]2C` (stereo partly drawn) [Example 4], the inhibition at 1 µM in the test with A549 lung cancer cells worked out at 18.2%. Besides, in the test on A549 lung cancer cells, the inhibition at 5 µM worked out at 99%. In addition, the inhibition at 10 µM with A549 lung cancer cells was 100%. Moreover, the IC50 was found to be 2360 nM in test [1]; 2290 nM in the test with LN229; 3040 nM in the test with A172; 1920 nM with KNS-42; 3310 nM in the test on BE(2)-C; 1930 nM with U118MG. The half-maximal inhibitory concentration (IC50) worked out at 2720 nM in the test on SW-1088 and 2800 nM in the test with SH-SY5Y.
With `C[C@H]1CC[C@@]2(OC1)O[C@H]1C[C@H]3[C@@H]4CC[C@@H]5CC(NC(=O)CC(=O)N6CCN(C)CC6)CC[C@]5(C)[C@H]4CC[C@]3(C)[C@H]1[C@@H]2C` (stereo partly drawn) [Example 5], in the test with A549 lung cancer cells, the inhibition at 1 µM is 1.37%, the inhibition at 5 µM is 48.3% and the inhibition at 10 µM was found to be 95.9%.
In the case of `C[C@H]1CC[C@@]2(OC1)O[C@H]1C[C@H]3[C@@H]4CC[C@@H]5CC(NC(=O)CC(=O)NC6CCN(C)CC6)CC[C@]5(C)[C@H]4CC[C@]3(C)[C@H]1[C@@H]2C` (stereo partly drawn) [Example 6], in the test on A549 lung cancer cells, the inhibition at 1 µM is -6.51%, the inhibition at 5 µM is 82.2% and the inhibition at 10 µM amounted to 99.8%.
Consider `C[C@H]1CC[C@@]2(OC1)O[C@H]1C[C@H]3[C@@H]4CC[C@@H]5CC(NC(=O)CC(=O)NCC6CCN(C)CC6)CC[C@]5(C)[C@H]4CC[C@]3(C)[C@H]1[C@@H]2C` (stereo partly drawn) [Example 7], for which, in the test with A549 lung cancer cells, the inhibition at 1 µM is -0.84%, the inhibition at 5 µM was determined as 91.7% and the inhibition at 10 µM is 99.9%.
On the same counts, the results for `C[C@H]1CC[C@@]2(OC1)O[C@H]1C[C@H]3[C@@H]4CC[C@@H]5CC(NC(=O)CC(=O)NCCCN6CCOCC6)CC[C@]5(C)[C@H]4CC[C@]3(C)[C@H]1[C@@H]2C` (stereo partly drawn) [Example 8] are 36.2%, 7.71% and 93.5%.
On the same counts, the results for `C[C@H]1CC[C@@]2(OC1)O[C@H]1C[C@H]3[C@@H]4CC[C@@H]5CC(NC(=O)CC(=O)N6CCC(N7CCCCC7)CC6)CC[C@]5(C)[C@H]4CC[C@]3(C)[C@H]1[C@@H]2C` (stereo partly drawn) [Example 9] are 2.09%, 22.9% and 97.8%.
The corresponding values for `C[C@H]1CC[C@@]2(OC1)O[C@H]1C[C@H]3[C@@H]4CC[C@@H]5CC(NC(=O)CC(=O)N6CCNCC6)CC[C@]5(C)[C@H]4CC[C@]3(C)[C@H]1[C@@H]2C` (stereo partly drawn) [Example 10] are 5.08%, 65.8% and 99.3%.
For the molecule `C[C@H]1CC[C@@]2(OC1)O[C@H]1C[C@H]3[C@@H]4CC[C@@H]5CC(NC(=O)CC(=O)N6CC7CNCC7C6)CC[C@]5(C)[C@H]4CC[C@]3(C)[C@H]1[C@@H]2C` (stereo partly drawn) [Example 11], in the test on A549 lung cancer cells, the inhibition at 1 µM is 3.86%, the inhibition at 5 µM stood at 57.3% and the inhibition at 10 µM was found to be 97.2%.
The corresponding values for `C[C@H]1CC[C@@]2(OC1)O[C@H]1C[C@H]3[C@@H]4CC[C@@H]5CC(NC(=O)CC(=O)N6CCN(CCN7CCCC7)CC6)CC[C@]5(C)[C@H]4CC[C@]3(C)[C@H]1[C@@H]2C` (stereo partly drawn) [Example 12] are 4.5%, 89.6% and 98.5%.
